“And” between values parts separate entries of the source, which are not always exact repeats. Equal values may be shown once. Inconclusive results and toxic doses are left out.
Tested on: BDF1 mice, P388 leukemia ip, median survival T/C
Assay: NCI In Vivo Anticancer Drug Screen. Data for tumor model P388 Leukemia (intraperitoneal) in B6D2F1 (BDF1) mice
Conditions: endpoint: median survival time, higher = longer survival
How it was run: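 Survival ratio, drug arm over vehicle arm, in mice with a transplanted tumour.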

[1] = dose: 100.0 mg/kg/injection, schedule: Q01DX009 (ip), vehicle: saline
[2] = dose: 25.0 mg/kg/injection, schedule: Q01DX009 (ip), vehicle: saline with Tween-80
[3] = dose: 50.0 mg/kg/injection, schedule: Q01DX009 (ip), vehicle: saline with Tween-80
[4] = dose: 100.0 mg/kg/injection, schedule: Q01DX009 (ip), vehicle: saline with Tween-80
[5] = dose: 100.0 mg/kg/injection, schedule: Q04DX003 (ip), vehicle: saline with Tween-80
[6] = dose: 200.0 mg/kg/injection, schedule: Q04DX003 (ip), vehicle: saline with Tween-80
[7] = dose: 400.0 mg/kg/injection, schedule: Q04DX003 (ip), vehicle: saline with Tween-80
[8] = dose: 25.0 mg/kg/injection, schedule: Q01DX009 (ip), vehicle: saline
[9] = dose: 50.0 mg/kg/injection, schedule: Q04DX003 (ip), vehicle: saline
[10] = dose: 100.0 mg/kg/injection, schedule: Q04DX003 (ip), vehicle: Klucel (hydroxypropylcellulose) (HPC)
[11] = dose: 200.0 mg/kg/injection, schedule: Q04DX003 (ip), vehicle: Klucel (hydroxypropylcellulose) (HPC)
[12] = dose: 400.0 mg/kg/injection, schedule: Q04DX003 (ip), vehicle: Klucel (hydroxypropylcellulose) (HPC)
[13] = dose: 25.0 mg/kg/injection, schedule: Q01DX009 (ip), vehicle: Klucel (hydroxypropylcellulose) (HPC)
[14] = dose: 50.0 mg/kg/injection, schedule: Q01DX009 (ip), vehicle: Klucel (hydroxypropylcellulose) (HPC)
[15] = dose: 200.0 mg/kg/injection, schedule: Q01DX009 (ip), vehicle: Klucel (hydroxypropylcellulose) (HPC)
[16] = dose: 400.0 mg/kg/injection, schedule: Q01DX009 (ip), vehicle: Klucel (hydroxypropylcellulose) (HPC)
[17] = dose: 100.0 mg/kg/injection, schedule: Q04DX003 (ip), vehicle: saline
[18] = dose: 200.0 mg/kg/injection, schedule: Q04DX003 (ip), vehicle: saline

In the case of `O=C1NC(=O)C(F)(F)C(O)N1` (stereo unspecified), the T/C (dose: 12.0 mg/kg/injection, schedule: Q01DX009 (ip), vehicle: saline) is reported as 115 % of control, the T/C (dose: 65.0 mg/kg/injection, schedule: Q01DX009 (ip), vehicle: saline) is reported as 154 % of control and the T/C [1] is reported as 154 % of control. For the same molecule, the T/C (dose: 150.0 mg/kg/injection, schedule: Q01DX009 (ip), vehicle: saline) was 166 % of control, the T/C (dose: 220.0 mg/kg/injection, schedule: Q01DX009 (ip), vehicle: saline) was 179 % of control and the T/C (dose: 320.0 mg/kg/injection, schedule: Q01DX009 (ip), vehicle: saline) was 195 % of control.

`N#CC(O)c1ccccc1` (stereo unspecified) was tested, and the T/C (dose: 2.5 mg/kg/injection, schedule: Q01DX010 (ip), vehicle: acetone) was 107 % of control, the T/C (dose: 5.0 mg/kg/injection, schedule: Q01DX010 (ip), vehicle: acetone) was 92 % of control and the T/C (dose: 10.0 mg/kg/injection, schedule: Q01DX010 (ip), vehicle: acetone) was 92 % of control.

`CCNC(C)(C)C(=O)c1ccc(Cl)s1` was tested, and the T/C [2] was 98 % of control, the T/C [3] was 91 % of control and the T/C (dose: 50.0 mg/kg/injection, schedule: Q04DX003 (ip), vehicle: saline with Tween-80) was 99 % of control. For the same molecule, the T/C [4] was 96 % of control, the T/C [5] was 86 % of control and 109 % of control and the T/C [6] was 89 % of control and 104 % of control. For the same molecule, the T/C [7] was 95 % of control and 96 % of control.

In the case of `COc1cc2c(cc1OC)C(CCN1C(=O)c3ccccc3C1=O)=NCC2`, the T/C (dose: 12.5 mg/kg/injection, schedule: Q01DX009 (ip), vehicle: saline) is reported as 91 % of control, the T/C [8] is reported as 87 % of control and the T/C (dose: 25.0 mg/kg/injection, schedule: Q04DX003 (ip), vehicle: saline) is reported as 100 % of control. For the same molecule, the T/C [9] was 95 % of control.

In the case of `NCC(O)CSc1ccccc1` (stereo unspecified), the T/C [8] is reported as 95 % of control, the T/C (dose: 50.0 mg/kg/injection, schedule: Q01DX009 (ip), vehicle: saline) is reported as 100 % of control and the T/C [1] is reported as 106 % of control.

In the case of `CC(C)C[CH2][Pb]([Cl])([CH2]CC(C)C)[CH2]CC(C)C`, the T/C (dose: 0.12 mg/kg/injection, schedule: Q01DX009 (ip), vehicle: Klucel (hydroxypropylcellulose) (HPC)) is reported as 104 % of control, the T/C (dose: 0.25 mg/kg/injection, schedule: Q01DX009 (ip), vehicle: Klucel (hydroxypropylcellulose) (HPC)) is reported as 106 % of control and the T/C (dose: 0.5 mg/kg/injection, schedule: Q01DX009 (ip), vehicle: Klucel (hydroxypropylcellulose) (HPC)) is reported as 109 % of control. The T/C (dose: 1.0 mg/kg/injection, schedule: Q01DX009 (ip), vehicle: Klucel (hydroxypropylcellulose) (HPC)) was 120 % of control.

For `CC1(C)CCC2(C)CC=C3OC(=O)CCC3(C)C2C1` (stereo unspecified), the T/C [4] was 118 % of control, the T/C (dose: 100.0 mg/kg/injection, schedule: Q04DX003 (ip), vehicle: saline sonified) was 100 % of control and the T/C (dose: 200.0 mg/kg/injection, schedule: Q01DX009 (ip), vehicle: saline with Tween-80) was 100 % of control. For the same molecule, the T/C (dose: 200.0 mg/kg/injection, schedule: Q04DX003 (ip), vehicle: saline sonified) was 100 % of control, the T/C (dose: 400.0 mg/kg/injection, schedule: Q01DX009 (ip), vehicle: saline with Tween-80) was 109 % of control and the T/C (dose: 400.0 mg/kg/injection, schedule: Q04DX003 (ip), vehicle: saline sonified) was 95 % of control.

In the case of `Cc1ccc2c(c1)C(=O)CCS2`, the T/C [10] is reported as 100 % of control, the T/C [11] is reported as 100 % of control and the T/C [12] is reported as 100 % of control.

For `O=C(O)/C=C\C(=O)Nc1ccccc1`, the T/C (dose: 6.25 mg/kg/injection, schedule: Q01DX009 (ip), vehicle: Klucel (hydroxypropylcellulose) (HPC)) was 105 % of control, the T/C (dose: 12.5 mg/kg/injection, schedule: Q01DX009 (ip), vehicle: Klucel (hydroxypropylcellulose) (HPC)) was 94 % of control and the T/C [13] was 94 % of control. For the same molecule, the T/C [14] was 115 % of control, the T/C [15] was 86 % of control and the T/C [16] was 95 % of control.

In the case of `CC(=O)O.[Cd]`, the T/C (dose: 5.0 mg/kg/injection, schedule: Q04DX003 (ip), vehicle: saline) is reported as 95 % of control.

For `CC1(CO)C(O)CCC2(C)C1CCC1CC3CC12CCC3(O)CO` (stereo unspecified), the T/C (dose: 75.0 mg/kg/injection, schedule: Q01DX009 (ip), vehicle: saline with Tween-80) was 155 % of control and the T/C (dose: 150.0 mg/kg/injection, schedule: Q01DX009 (ip), vehicle: saline with Tween-80) was 155 % of control.

In the case of `CCC[P+](c1ccccc1)(c1ccccc1)c1ccccc1`, the T/C (dose: 2.0 mg/kg/injection, schedule: Q01DX009 (ip), vehicle: saline) is reported as 111 % of control, the T/C (dose: 4.0 mg/kg/injection, schedule: Q01DX009 (ip), vehicle: saline) is reported as 115 % of control and the T/C (dose: 8.0 mg/kg/injection, schedule: Q01DX009 (ip), vehicle: saline) is reported as 123 % of control.

`CCCCCCCCCCN1CCOCCOCCN(CCCCCCCCCC)CCOCCOCC1` was tested, and the T/C (dose: 1.56 mg/kg/injection, schedule: Q01DX005 (ip), vehicle: saline with Tween-80) was 113 % of control, the T/C (dose: 3.13 mg/kg/injection, schedule: Q01DX005 (ip), vehicle: saline with Tween-80) was 103 % of control and the T/C (dose: 6.25 mg/kg/injection, schedule: Q01DX005 (ip), vehicle: saline with Tween-80) was 113 % of control.

`CN(C)N=Nc1cc(Cl)cc(C(N)=O)c1Cl` was tested, and the T/C (dose: 12.5 mg/kg/injection, schedule: Q01DX009 (ip), vehicle: saline with Tween-80) was 108 % of control, the T/C [2] was 104 % of control and the T/C [3] was 104 % of control. For the same molecule, the T/C (dose: 88.0 mg/kg/injection, schedule: Q01DX009 (ip), vehicle: saline with Tween-80) was 108 % of control, the T/C (dose: 177.0 mg/kg/injection, schedule: Q01DX009 (ip), vehicle: saline with Tween-80) was 95 % of control and the T/C (dose: 266.0 mg/kg/injection, schedule: Q01DX009 (ip), vehicle: saline with Tween-80) was 87 % of control.

In the case of `C[C@]12CCC(=O)C=C1CC[C@@H]1C2=CC[C@@]2(C)[C@H]1CC[C@]2(C)O`, the T/C (dose: 0.78 mg/kg/injection, schedule: Q01DX009 (ip), vehicle: Klucel (hydroxypropylcellulose) (HPC)) is reported as 100 % of control, the T/C (dose: 1.56 mg/kg/injection, schedule: Q01DX009 (ip), vehicle: Klucel (hydroxypropylcellulose) (HPC)) is reported as 90 % of control and the T/C (dose: 3.12 mg/kg/injection, schedule: Q01DX009 (ip), vehicle: Klucel (hydroxypropylcellulose) (HPC)) is reported as 86 % of control. For the same molecule, the T/C [14] was 87 % of control, the T/C [10] was 109 % of control and the T/C [15] was 87 % of control. The T/C [11] was 104 % of control.

With `O=C(NC(=O)c1c(F)cccc1F)Nc1ccc(Cl)c(Cl)c1` the T/C [2] was 96 % of control, the T/C [3] was 97 % of control and the T/C [4] was 100 % of control.

`CC(O)CN(CCN(CC(C)O)CC(C)O)CC(C)O.[Cl-].[Co+2]` (stereo unspecified) was tested, and the T/C [1] was 110 % of control.

With `O=C(O)C1=NN(c2cc(Cl)c(S(=O)(=O)O)cc2Cl)C(=O)C1` the T/C (dose: 100.0 mg/kg/injection, schedule: Q01DX009 (ip), vehicle: Klucel (hydroxypropylcellulose) (HPC)) was 100 % of control, the T/C [1] was 110 % of control and the T/C [17] was 95 % of control. The T/C (dose: 175.0 mg/kg/injection, schedule: Q01DX009 (ip), vehicle: other) was 100 % of control, the T/C [15] was 108 % of control and the T/C (dose: 200.0 mg/kg/injection, schedule: Q01DX009 (ip), vehicle: saline) was 120 % of control. For the same molecule, the T/C [18] was 95 % of control, the T/C (dose: 265.0 mg/kg/injection, schedule: Q01DX009 (ip), vehicle: other) was 88 % of control and the T/C [16] was 104 % of control. For the same molecule, the T/C (dose: 400.0 mg/kg/injection, schedule: Q01DX009 (ip), vehicle: other) was 100 % of control, the T/C (dose: 400.0 mg/kg/injection, schedule: Q04DX003 (ip), vehicle: saline) was 118 % of control and the T/C (dose: 600.0 mg/kg/injection, schedule: Q01DX009 (ip), vehicle: other) was 88 % of control.

For `Cn1cnc([N+](=O)[O-])c1[Se]c1nc(N)nc2c1ncn2C1CC(O)C(CO)O1` (stereo unspecified), the T/C [9] was 95 % of control, the T/C [17] was 90 % of control and the T/C [18] was 90 % of control.

For `COC(C)(OC)C(N)=O`, the T/C [5] was 100 % of control, the T/C [6] was 100 % of control and the T/C [7] was 104 % of control.

For `CC(=O)N(N=Nc1ccccc1)c1cccc2ccccc12`, the T/C [13] was 109 % of control and 113 % of control, the T/C (dose: 35.0 mg/kg/injection, schedule: Q01DX009 (ip), vehicle: Klucel (hydroxypropylcellulose) (HPC)) was 103 % of control and the T/C [14] was 107 % of control. The T/C (dose: 50.0 mg/kg/injection, schedule: Q04DX003 (ip), vehicle: Klucel (hydroxypropylcellulose) (HPC)) was 100 % of control and the T/C [10] was 110 % of control.

In the case of `CCC(=O)OC1CC2C3CCC4=CC(=O)CCC4(C)C3CCC2(C)C1OC(=O)CC` (stereo unspecified), the T/C [10] is reported as 100 % of control, the T/C [15] is reported as 109 % of control and the T/C [11] is reported as 104 % of control. For the same molecule, the T/C [16] was 91 % of control and 122 % of control and the T/C [12] was 104 % of control.

From PubChem BioAssay AID328 (DTP/NCI, 2004)
